Test system: skin
Assay: Affymetrix microarray of skin, DBP-4 hr and analogs vs. untreated; gene selection by log-2 fold change, Wilcoxon, Kendall tau (Tables 8, 9)
Assay type: in vivo, mouse
Details: for Kendall: Kendall tau coefficient

CCCCOC(=O)c1ccccc1C(=O)OCCCC [DBP, dibutylphthalate]
DBP Expression: Socs2 (NM_001168655_at, DBP-4 hr): 8.92
DBP Expression: Socs2 (NM_001168656_at, DBP-4 hr): 8.92
DBP Expression: Socs2 (NM_001168657_at, DBP-4 hr): 8.92
DBP Expression: Arid5a (NM_001172205_at, DBP-4 hr): 7.61
DBP Expression: Arid5a (NM_001172206_at, DBP-4 hr): 7.61
DBP Expression: Nfkb2 (NM_001177369_at, DBP-4 hr): 8.26
DBP Expression: Nfkb2 (NM_001177370_at, DBP-4 hr): 8.26
DBP Expression: Cd44 (NM_001177785_at, DBP-4 hr): 9.82
DBP Expression: Cd44 (NM_001177786_at, DBP-4 hr): 9.82
DBP Expression: Cd44 (NM_001177787_at, DBP-4 hr): 9.82
DBP Expression: Smox (NM_001177833_at, DBP-4 hr): 8.18
DBP Expression: Smox (NM_001177834_at, DBP-4 hr): 8.24
DBP Expression: Smox (NM_001177835_at, DBP-4 hr): 8.44
DBP Expression: Smox (NM_001177836_at, DBP-4 hr): 8.07
DBP Expression: Smox (NM_001177837_at, DBP-4 hr): 8.07
DBP Expression: Smox (NM_001177838_at, DBP-4 hr): 8.44
DBP Expression: Smox (NM_001177839_at, DBP-4 hr): 8.07
DBP Expression: Smox (NM_001177840_at, DBP-4 hr): 8.44
DBP Expression: Pde4b (NM_001177980_at, DBP-4 hr): 8.96
DBP Expression: Pde4b (NM_001177981_at, DBP-4 hr): 8.96
DBP Expression: Pde4b (NM_001177982_at, DBP-4 hr): 8.96
DBP Expression: 5730408K05Rik (NR_027866_at, DBP-4 hr): 8.14
DBP Expression: Arid5a (NR_033310_at, DBP-4 hr): 7.61
Wilcoxon (Socs2 NM_007706_at, DBP-4 hr vs. untreated): No
Kendall (Socs2 NM_007706_at): No
Wilcoxon (Socs3 NM_007707_at, DBP-4 hr vs. untreated): Yes
Kendall (Socs3 NM_007707_at): No
Wilcoxon (Timp1 NM_001044384_at, DBP-4 hr vs. untreated): Yes
Kendall (Timp1 NM_001044384_at): No
DBP Expression: LOC100504977 (XM_003085794_at, DBP-4 hr): 8.47
Wilcoxon: 1810046J19Rik (gene 1810046J19Rik, NM_025559_at, DBP-4 hr vs. untreated): No
Kendall: 1810046J19Rik (gene 1810046J19Rik, NM_025559_at, gene expression vs. output): Yes
Wilcoxon: 4933434E20Rik (gene 4933434E20Rik, NM_025762_at, DBP-4 hr vs. untreated): No
Kendall: 4933434E20Rik (gene 4933434E20Rik, NM_025762_at, gene expression vs. output): Yes
Log2 Expression Level (gene #1 of Table 8): 6.82
Log2 Expression Level (gene #2 of Table 8): 6.93
Log2 Expression Level (gene #3 of Table 8): 9.82
Log2 Expression Level (gene #4 of Table 8): 9.82
Log2 Expression Level (gene #5 of Table 8): 7.53
Log2 Expression Level (gene #6 of Table 8): 6.91
Log2 Expression Level (gene #7 of Table 8): 6.26
Log2 Expression Level (gene #8 of Table 8): 6.91
Log2 Expression Level (gene #9 of Table 8): 6.91
Log2 Expression Level (gene #10 of Table 8): 6.91
Log2 Expression Level (gene #11 of Table 8): 6.26
Log2 Expression Level (gene #12 of Table 8): 6.26
Log2 Expression Level (gene #13 of Table 8): 6.26
Log2 Expression Level (gene #14 of Table 8): 6.13
Log2 Expression Level (gene #15 of Table 8): 6.13
Log2 Expression Level (gene #16 of Table 8): 7.45
Log2 Expression Level (gene #17 of Table 8): 9.48
Log2 Expression Level (gene #18 of Table 8): 9.48
Log2 Expression Level (gene #19 of Table 8): 9.61
Log2 Expression Level (gene #20 of Table 8): 11.11
Log2 Expression Level (gene #21 of Table 8): 9.27
Log2 Expression Level (gene #22 of Table 8): 8.24
Log2 Expression Level (gene #23 of Table 8): 6.89
Log2 Expression Level (gene #24 of Table 8): 8.10
Log2 Expression Level (gene #25 of Table 8): 8.10
Log2 Expression Level (gene #26 of Table 8): 8.56
Log2 Expression Level (gene #27 of Table 8): 8.56
Log2 Expression Level (gene #28 of Table 8): 8.56
Log2 Expression Level (gene #29 of Table 8): 7.22
Log2 Expression Level (gene #30 of Table 8): 8.92
Log2 Expression Level (gene #31 of Table 8): 8.92
Log2 Expression Level (gene #32 of Table 8): 8.92
Log2 Expression Level (gene #33 of Table 8): 6.54
Log2 Expression Level (gene #34 of Table 8): 7.61
Log2 Expression Level (gene #35 of Table 8): 7.61
Log2 Expression Level (gene #36 of Table 8): 9.82
Log2 Expression Level (gene #37 of Table 8): 9.82
Log2 Expression Level (gene #38 of Table 8): 9.82
Log2 Expression Level (gene #39 of Table 8): 8.18
Log2 Expression Level (gene #40 of Table 8): 8.24
Log2 Expression Level (gene #41 of Table 8): 8.44
Log2 Expression Level (gene #42 of Table 8): 8.07
Log2 Expression Level (gene #43 of Table 8): 8.07
Log2 Expression Level (gene #44 of Table 8): 8.44
Log2 Expression Level (gene #45 of Table 8): 8.07
Log2 Expression Level (gene #46 of Table 8): 8.44
Log2 Expression Level (gene #47 of Table 8): 8.96
Log2 Expression Level (gene #48 of Table 8): 8.96
Log2 Expression Level (gene #49 of Table 8): 8.96
Log2 Expression Level (gene #50 of Table 8): 10.11
Log2 Expression Level (gene #51 of Table 8): 8.84
Log2 Expression Level (gene #52 of Table 8): 10.36
Log2 Expression Level (gene #53 of Table 8): 8.58
Log2 Expression Level (gene #54 of Table 8): 10.63
Log2 Expression Level (gene #55 of Table 8): 7.56

— patent US20150307938A1, “METHOD TO IDENTIFY A NOVEL CLASS OF IMMUNOLOGIC ADJUVANTS” (Lancell, L.L.C., priority 2011, published 2015)
